Values quoted from earlier work in US8754089B2, “Heterocyclic compounds and their uses” (Amgen Inc., priority 2009, dated 2014).

Key:
neutrophil [1] = settings: cited from earlier work
neutrophil [2] = settings: cited from earlier work; remark: listed apart in the source
protein kinases = settings: cited from earlier work
p110δ = p110δ (Homo sapiens (Human), UniProt O00329); settings: cited from earlier work
[3] = ovalbumin-induced airway inflammation; cited from earlier work
[4] = in vivo; cited from earlier work
[5] = in vivo; cited from earlier work; remark: listed apart in the source

Chain of p110δ (O00329 whole entry, looked up, species assumed): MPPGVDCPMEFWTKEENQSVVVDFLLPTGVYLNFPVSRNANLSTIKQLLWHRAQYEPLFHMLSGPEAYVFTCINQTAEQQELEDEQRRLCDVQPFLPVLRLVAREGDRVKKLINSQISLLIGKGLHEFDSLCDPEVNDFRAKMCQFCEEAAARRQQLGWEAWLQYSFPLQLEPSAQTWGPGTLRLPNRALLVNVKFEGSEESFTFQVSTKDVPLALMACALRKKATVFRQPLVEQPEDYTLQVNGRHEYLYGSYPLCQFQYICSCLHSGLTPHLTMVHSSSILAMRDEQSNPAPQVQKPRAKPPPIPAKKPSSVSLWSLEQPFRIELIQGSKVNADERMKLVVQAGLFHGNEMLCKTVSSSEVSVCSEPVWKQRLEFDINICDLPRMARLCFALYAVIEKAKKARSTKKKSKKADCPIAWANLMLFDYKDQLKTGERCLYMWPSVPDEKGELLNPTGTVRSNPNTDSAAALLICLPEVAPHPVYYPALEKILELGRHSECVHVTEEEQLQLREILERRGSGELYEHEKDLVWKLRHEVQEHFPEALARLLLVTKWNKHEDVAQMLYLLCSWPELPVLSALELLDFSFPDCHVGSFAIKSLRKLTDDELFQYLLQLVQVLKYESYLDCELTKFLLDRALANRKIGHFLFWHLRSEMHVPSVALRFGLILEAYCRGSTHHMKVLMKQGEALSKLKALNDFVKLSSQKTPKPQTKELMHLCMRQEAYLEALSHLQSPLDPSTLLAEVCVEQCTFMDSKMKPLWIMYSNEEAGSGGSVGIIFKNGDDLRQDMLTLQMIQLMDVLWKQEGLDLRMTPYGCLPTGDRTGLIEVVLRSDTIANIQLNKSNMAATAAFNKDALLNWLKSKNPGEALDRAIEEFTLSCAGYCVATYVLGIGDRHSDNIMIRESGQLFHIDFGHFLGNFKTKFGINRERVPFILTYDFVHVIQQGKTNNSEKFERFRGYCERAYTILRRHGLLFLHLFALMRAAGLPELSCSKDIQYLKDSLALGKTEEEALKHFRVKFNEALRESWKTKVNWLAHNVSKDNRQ
Chain of p110δ (P27986 whole entry partner, looked up, species assumed): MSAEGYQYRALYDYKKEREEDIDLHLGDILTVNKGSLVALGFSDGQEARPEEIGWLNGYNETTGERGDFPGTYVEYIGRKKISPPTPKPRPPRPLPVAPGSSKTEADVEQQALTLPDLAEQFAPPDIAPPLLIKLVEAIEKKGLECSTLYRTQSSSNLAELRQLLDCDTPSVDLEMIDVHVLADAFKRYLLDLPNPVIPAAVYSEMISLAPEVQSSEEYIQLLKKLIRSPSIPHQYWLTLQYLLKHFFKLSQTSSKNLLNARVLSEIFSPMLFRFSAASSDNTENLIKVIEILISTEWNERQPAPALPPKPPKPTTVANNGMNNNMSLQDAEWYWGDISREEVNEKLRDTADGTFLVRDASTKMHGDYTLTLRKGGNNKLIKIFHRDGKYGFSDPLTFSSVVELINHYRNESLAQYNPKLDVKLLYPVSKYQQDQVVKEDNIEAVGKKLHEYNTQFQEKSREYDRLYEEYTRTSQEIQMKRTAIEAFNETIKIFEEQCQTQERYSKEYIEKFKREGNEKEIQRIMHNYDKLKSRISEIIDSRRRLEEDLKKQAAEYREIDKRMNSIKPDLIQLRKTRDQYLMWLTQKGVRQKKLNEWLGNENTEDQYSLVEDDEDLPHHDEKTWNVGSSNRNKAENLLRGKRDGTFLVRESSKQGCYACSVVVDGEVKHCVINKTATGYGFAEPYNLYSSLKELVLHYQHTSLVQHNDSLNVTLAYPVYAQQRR

With `O=c1cc(N2CCOCC2)oc2c(-c3ccccc3)cccc12` [LY294002] as the compound, how does the neutrophil migration (neutrophil [1]) read?
The neutrophil migration was “block”.

What about the superoxide release (neutrophil [2]) of the same compound?
The superoxide release was “block”.

What does the source list for `Cc1ccccc1-n1c(Cn2cnc3c(N)ncnc32)nc2cccc(C)c2c1=O` [IC87114]?
activity against any protein kinases tested (protein kinases): no activity; inhibition of p110δ (p110δ): high nanomolar range (triple digit); inflammation and disease in a murine model of asthma [3]: significantly ameliorate inflammation and disease

With `COC[C@H]1OC(=O)c2coc3c2[C@@]1(C)C1=C(C3=O)[C@@H]2CCC(=O)[C@@]2(C)C[C@H]1OC(C)=O` [wortmannin] as the compound, how does the neutrophil migration (neutrophil [1]) read?
Its neutrophil migration is “block”.

And the superoxide release (neutrophil [2])?
The superoxide release was “block”.

Which “efficacy in a mouse model of rheumatoid arthritis” value [4] does the source give for `O=C1NC(=O)/C(=C\c2ccc3nccnc3c2)S1` [AS 605240] here?
The value was “efficacious”.

And the “onset of disease in a model of systemic lupus erythematosis” value [5]?
Its value is “delay onset of disease”.
